assay: The TLC plates are then dried, exposed to a phosphorimager screen (Storm, Amersham), and quantitated. For each compound, kinase activity is measured at 10-12 inhibitor concentrations representing two-fold dilutions from the highest concentration tested (typically, 200 μM).

Row | Structure (SMILES) | IC50
1 | C[C@H](NC(=O)c1c(N)nn2cccnc12)c1cc2cccc(Cl)c2c(=O)n1-c1ccccc1O | in the range around 5.5 µM
2 | C[C@H](NC(=O)c1c(N)nn2cccnc12)c1cc2cccc(OCC(F)(F)F)c2c(=O)n1-c1ccccc1 | in the range around 5.5 µM
3 | Cc1cccc(-n2c([C@H](C)NC(=O)c3c(N)nn4cccnc34)cc3cccc(Cl)c3c2=O)c1 | in the range around 5.5 µM
4 | C[C@H](NC(=O)c1c(N)nn2cccnc12)c1cc2cccc(-c3cnn(CC(F)(F)F)c3)c2c(=O)n1-c1ccccc1 | in the range around 5.5 µM
5 | C[C@H](NC(=O)c1c(N)nn2cccnc12)c1cc2cccc(Cl)c2c(=O)n1C1CCC1 | in the range around 5.5 µM
6 | CNS(=O)(=O)CCn1c([C@H](C)NC(=O)c2c(N)nn3cccnc23)cc2cccc(Cl)c2c1=O | in the range around 5.5 µM
7 | C[C@H](NC(=O)c1c(N)nn2cccnc12)c1cc2cccc(Cl)c2c(=O)n1CCS(=O)(=O)N(C)C | in the range around 0.75 µM
8 | C[C@H](NC(=O)c1c(N)nn2cccnc12)c1cc2cccc(Cl)c2c(=O)n1-c1cccc(S(C)(=O)=O)c1 | in the range around 5.5 µM
9 | C[C@H](NC(=O)c1c(N)nn2cccnc12)c1cc2cccc(Cl)c2c(=O)n1Cc1nnn[nH]1 | in the range around 5.5 µM
10 | C[C@H](NC(=O)c1c(N)nn2cccnc12)c1cc2cccc(Cl)c2c(=O)n1CCc1c[nH]cn1 | in the range around 5.5 µM
11 | CCn1cc(-c2cccc3cc([C@H](C)NC(=O)c4c(N)nn5cccnc45)n(-c4ccccc4)c(=O)c23)cn1 | in the range around 5.5 µM
12 | C[C@H](NC(=O)c1c(N)ncn2ccnc12)c1cc2cccc(Cl)c2c(=O)n1-c1ccccc1 | in the range around 5.5 µM
13 | C[C@H](NC(=O)c1c(N)nn2cccnc12)c1cc2cccc(Cl)c2c(=O)n1CCCNS(C)(=O)=O | in the range around 0.75 µM
14 | C[C@H](NC(=O)c1c(N)nn2cccnc12)c1cc2cccc(Cl)c2c(=O)n1-c1ccccc1NS(C)(=O)=O | in the range around 5.5 µM
15 | Cc1ccnc2c(C(=O)N[C@@H](C)c3cc4cccc(Cl)c4c(=O)n3-c3ccccc3)c(N)nn12 | in the range around 5.5 µM
16 | C[C@H](NC(=O)c1c(N)nn2cccnc12)c1cc2cccc(Cl)c2c(=O)n1CCc1cnn[nH]1 | in the range around 5.5 µM
17 | C[C@H](NC(=O)c1c(N)nn2cccnc12)c1cc2cccc(Cl)c2c(=O)n1CCc1ncn[nH]1 | in the range around 5.5 µM
18 | C[C@H](NC(=O)c1c(N)nn2cccnc12)c1nc2cccc(Cl)c2c(=O)n1-c1ccc(F)cc1 | in the range around 5.5 µM
19 | C[C@H](NC(=O)c1c(N)nn2cccnc12)c1cc2cccc(Cl)c2c(=O)n1CCc1nnn[nH]1 | in the range around 5.5 µM

Row | Structure (SMILES) | IC50
20 | C#CCCn1c([C@H](C)NC(=O)c2c(N)nn3cccnc23)cc2cccc(Cl)c2c1=O | in the range around 5.5 µM
21 | CC(C)C(=O)Cc1cccc2cc([C@H](C)NC(=O)c3c(N)nn4cccnc34)n(-c3ccccc3)c(=O)c12 | in the range around 5.5 µM
22 | C[C@H](NC(=O)c1c(N)nn2cccnc12)c1cc2cccc(Cl)c2c(=O)n1-c1ccc(S(C)(=O)=O)cc1 | in the range around 5.5 µM
23 | C[C@H](NC(=O)c1c(N)nn2cccnc12)c1cc2cccc(Cl)c2c(=O)n1-c1cccc(O)c1 | in the range around 5.5 µM
24 | C[C@H](NC(=O)c1c(N)nn2cccnc12)c1cc2cccc(CC(=O)C(C)(C)C)c2c(=O)n1-c1ccccc1 | in the range around 5.5 µM
25 | C[C@H](NC(=O)c1c(N)nn2cccnc12)c1oc2ccc(F)cc2c(=O)c1-c1ccccc1 | in the range around 5.5 µM
26 | C[C@H](NC(=O)c1c(N)nn2cccnc12)c1cc2cccc(Cl)c2c(=O)n1-c1cccnc1 | in the range around 5.5 µM
27 | CC(=O)Cc1cccc2nc([C@H](C)NC(=O)c3c(N)nn4cccnc34)n(-c3ccccc3)c(=O)c12 | in the range around 5.5 µM
28 | C[C@H](NC(=O)c1c(N)nn2cccnc12)c1cc2cccc(Cl)c2c(=O)n1CCc1nnn(C)n1 | in the range around 5.5 µM
29 | C[C@H](NC(=O)c1c(N)nn2cccnc12)c1nc2cccc(N3CCOCC3)c2c(=O)n1-c1ccccc1 | in the range around 5.5 µM
30 | CCS(=O)(=O)NCCn1c([C@H](C)NC(=O)c2c(N)nn3cccnc23)cc2cccc(Cl)c2c1=O | in the range around 5.5 µM
31 | C[C@H](NC(=O)c1c(N)nn2cccnc12)c1cc2cccc(Cl)c2c(=O)n1CCc1noc(C(C)(C)C)n1 | in the range around 5.5 µM
32 | C[C@H](NC(=O)c1c(N)nn2cccnc12)c1nc2cccc(Cl)c2c(=O)n1-c1ccc(F)c(F)c1 | in the range around 5.5 µM
33 | C[C@H](NC(=O)c1c(N)nn2cccnc12)c1cc2cccc(Cl)c2c(=O)n1C1CC(NS(C)(=O)=O)C1 (stereo partly specified) | in the range around 5.5 µM
34 | COc1ccccc1-n1c([C@H](C)NC(=O)c2c(N)nn3cccnc23)cc2cccc(Cl)c2c1=O | in the range around 5.5 µM
35 | C[C@H](NC(=O)c1c(N)nn2cccnc12)c1nc2ccccc2c(=O)n1-c1ccccc1 | in the range around 5.5 µM
36 | Cc1noc(CCn2c([C@H](C)NC(=O)c3c(N)nn4cccnc34)cc3cccc(Cl)c3c2=O)n1 | in the range around 5.5 µM
37 | C[C@H](NC(=O)c1c(N)nn2cccnc12)c1cc2cccc(OCc3cnn(C)c3)c2c(=O)n1-c1ccccc1 | in the range around 5.5 µM
38 | C[C@H](NC(=O)c1c(N)nn2cccnc12)c1cc2cccc(-c3cnn(CC#N)c3)c2c(=O)n1-c1ccccc1 | in the range around 5.5 µM

Row | Structure (SMILES) | IC50
39 | C[C@H](NC(=O)c1nccnc1N)c1oc2ccc(F)cc2c(=O)c1-c1ccccc1 | in the range around 5.5 µM
40 | C[C@H](NC(=O)c1c(N)nn2cccnc12)c1cc2cccc(Cl)c2c(=O)n1-c1ccc(O)cc1 | in the range around 5.5 µM
41 | C[C@H](NC(=O)c1c(N)nn2cccnc12)c1cc2cccc(Cl)c2c(=O)n1-c1ccccc1F | in the range around 5.5 µM
42 | C[C@H](NC(=O)c1c(N)nn2cccnc12)c1cc2cccc(Cl)c2c(=O)n1CCCS(C)(=O)=O | in the range around 5.5 µM
43 | C[C@H](NC(=O)c1c(N)nn2cccnc12)c1cc2cccc(Cl)c2c(=O)n1CCNS(C)(=O)=O | in the range around 5.5 µM
44 | C[C@H](NC(=O)c1c(N)nn2cccnc12)c1cc2cccc(Cl)c2c(=O)n1-c1ccc(NS(C)(=O)=O)cc1 | in the range around 5.5 µM
45 | Cc1cccc2c(=O)n(-c3ccccc3)c([C@H](C)NC(=O)c3c(N)nn4cccnc34)nc12 | in the range around 5.5 µM
46 | C[C@H](NC(=O)c1nccnc1N)c1cc2cccc(C(F)(F)F)c2c(=O)n1-c1ccccc1 | in the range around 5.5 µM
47 | Cc1ccccc1-n1c([C@H](C)NC(=O)c2c(N)nn3cccnc23)cc2cccc(Cl)c2c1=O | in the range around 5.5 µM
48 | C[C@H](NC(=O)c1nccnc1N)c1nc2cccc(Cl)c2c(=O)n1-c1ccc(F)cc1 | in the range around 5.5 µM
49 | C[C@H](NC(=O)c1c(N)nn2cccnc12)c1nc2c(Cl)cccc2c(=O)n1-c1ccccc1 | in the range around 5.5 µM
50 | C[C@H](NC(=O)c1nc(C2CC2)cnc1N)c1cc2cccc(Cl)c2c(=O)n1-c1ccccc1 | in the range around 5.5 µM
51 | C[C@H](NC(=O)c1c(N)nn2cccnc12)c1cc2cccc(Cl)c2c(=O)n1CCc1ccccc1 | in the range around 5.5 µM
52 | Cc1ccc(-n2c([C@H](C)NC(=O)c3c(N)nn4cccnc34)cc3cccc(Cl)c3c2=O)cc1 | in the range around 5.5 µM
53 | C[C@H](NC(=O)c1c(N)nn2cccnc12)c1cc2cccc(Cl)c2c(=O)n1-c1cccc(NS(C)(=O)=O)c1 | in the range around 5.5 µM
54 | C[C@H](NC(=O)c1c(N)nn2cccnc12)c1cc2cccc(Cl)c2c(=O)n1CCc1nnnn1C | in the range around 5.5 µM
55 | C[C@H](NC(=O)c1c(N)nn2cccnc12)c1nc2ccc(Cl)cc2c(=O)n1-c1ccccc1 | in the range around 5.5 µM
56 | C[C@H](NC(=O)c1c(N)nn2cccnc12)c1cc2cccc(Cl)c2c(=O)n1CCS(N)(=O)=O | in the range around 5.5 µM

Source: ChEMBL document CHEMBL5726389, “Heterocyclic compounds and uses thereof” (2017)
